Data reported in US20060166985A1, “Pyrrolydin-2-one derivatives as inhibitors of thrombin and factor xa” (priority 2002, published 2006).

Target: human Thrombin (Homo sapiens, UniProt P00734)
Assay: In vitro assay for inhibition of Thrombin (chromogenic or fluorogenic assay)
Assay type: biochemical
Conditions: Example 2 chromogenic assay, other Examples fluorogenic assay, read-out: thrombin inhibitory Ki
Method: Thrombin inhibitory activity is measured by the ability to inhibit human α-thrombin in a chromogenic assay using N-p-tosyl-gly-pro-lys p-nitroanilide as the chromogenic substrate, or in a fluorogenic assay using Rhodamine 110, bis-(CBZ-L-valyl-L-prolyl-L-arginine amide) as the fluorogenic substrate.
The compound was diluted from a 10 mM stock solution in dimethylsulfoxide at appropriate concentrations. Assay was performed at room temperature using buffer consisting of: 50 mM HEPES, 150 mM NaCl, 5 mM CaCl2, 0.1% PEG, pH 7.4. containing human Thrombin (final conc. of 1 nM). Compound and enzyme were preincubated for 15 min prior to addition of the substrate (final conc. of 100 μM). The reaction was stopped after 30 min with the addition of soybean trypsin inhibitor or H-D-PHE-PRO-ARG-Chloromethylketone. […] To obtain IC50 values the data were analysed using ActivityBase® and XLfit®.
Compounds were diluted from a 10 mM stock solution in dimethylsulfoxide at appropriate concentrations. Assay was performed at room temperature using buffer consisting of: 50 mM HEPES, 150 mM NaCl, 5 mM CaCl2, 0.1% PEG, pH 7.4. containing human Thrombin (final conc. Of 0.2 nM). Compound and enzyme were preincubated for 15 min prior to addition of the substrate (final conc. of 10 μM). The reaction was stopped after 3 hrs with the addition of H-D-PHE-PRO-ARG-Chloromethylketone. […] To obtain IC50 values the data were analysed using ActivityBase® and XLfit®.

| Ki | Compound |
| --- | --- |
| < 200 nM | C[C@@H](C(=O)N1CCOCC1)N1CC[C@H](NS(=O)(=O)CCc2ccc(Cl)cc2Cl)C1=O [Example 42, 2-(2,4-dichlorophenyl)-N-{(3S)-1-[(1S)-1-methyl-2-morpholin-4-yl-2-oxoethyl]-2-oxopyrrolidin-3-yl}ethanesulfonamide] |
| < 50 nM | CC(C)[C@@H](C(=O)N1CCOCC1)N1CC[C@H](NS(=O)(=O)CCc2ccc(Cl)cc2)C1=O [Example 45, 2-(4-chlorophenyl)-N-{(3S)-1-[(1S)-2-methyl-1-(morpholin-4-ylcarbonyl)propyl]-2-oxopyrrolidin-3-yl}ethanesulfonamide] |
| < 200 nM | O=C(O)C[C@@H](C(=O)N1CCOCC1)N1CC[C@H](NS(=O)(=O)CCc2ccc(Cl)s2)C1=O [Example 46] |
| < 100 nM | C[C@@H](C(=O)N1CCOCC1)N1CC[C@H](NS(=O)(=O)CCc2ccc(Cl)cn2)C1=O [Example 47, 2-(5-chloro-2-pyridinyl)-N-{(3S)-1-[(1S)-1-methyl-2-(4-morpholinyl)-2-oxoethyl]-2-oxo-3-pyrrolidinyl}ethanesulfonamide] |
| < 25 nM | CC[C@H](C)[C@@H](C(=O)N1CCOCC1)N1CC[C@H](NS(=O)(=O)CCc2ccc(Cl)cn2)C1=O [Example 48, 2-(5-chloro-2-pyridinyl)-N-{(3S)-1-[(1S,2S)-2-methyl-1-(4-morpholinylcarbonyl)butyl]-2-oxo-3-pyrrolidinyl}ethanesulfonamide] |
| < 25 nM | CCOC[C@@H](C(=O)N1CCOCC1)N1CC[C@H](NS(=O)(=O)CCc2ccc(Cl)cn2)C1=O [Example 49, 2-(5-chloro-2-pyridinyl)-N-{(3S)-1-[(1S)-1-[(ethyloxy)methyl]-2-(4-morpholinyl)-2-oxoethyl]-2-oxo-3-pyrrolidinyl}ethanesulfonamide] |
| < 200 nM | COC[C@@H](C(=O)N1CCOCC1)N1CC[C@H](NS(=O)(=O)CCc2ccc(Cl)cn2)C1=O [Example 50, 2-(5-chloro-2-pyridinyl)-N-{(3S)-1-[(1S)-1-[(methyloxy)methyl]-2-(4-morpholinyl)-2-oxoethyl]-2-oxo-3-pyrrolidinyl}ethanesulfonamide] |
| < 50 nM | CC[C@H](C)[C@@H](C(=O)N1CCOCC1)N1CC[C@H](NS(=O)(=O)CC(=O)c2ccc(Cl)cc2)C1=O [Example 51, 2-(4-chlorophenyl)-N-{(3S)-1-[(1S,2S)-2-methyl-1-(4-morpholinylcarbonyl)butyl]-2-oxo-3-pyrrolidinyl}-2-oxoethanesulfonamide] |
| < 50 nM | COC[C@@H](C(=O)N1CCOCC1)N1CC[C@H](NS(=O)(=O)CC(=O)c2ccc(Cl)cc2)C1=O [Example 52] |
| < 100 nM | CC[C@H](C)[C@@H](C(=O)N1CCOCC1)N1CC[C@H](NS(=O)(=O)CC(O)c2ccc(Cl)cc2)C1=O (stereo partly drawn) [Example 53, 2-(4-chlorophenyl)-2-hydroxy-N-{(3S)-1-[(1S,2S)-2-methyl-1-(4-morpholinylcarbonyl)butyl]-2-oxo-3-pyrrolidinyl}ethanesulfonamide] |
| < 100 nM | CC(CS(=O)(=O)N[C@H]1CCN([C@@H](C)C(=O)N2CCOCC2)C1=O)c1ccc(Cl)s1 (stereo partly drawn) [Example 54, 2-(5-chloro-2-thienyl)-N-{(3S)-1-[(1S)-1-methyl-2-(4-morpholinyl)-2-oxoethyl]-2-oxo-3-pyrrolidinyl}-1-propanesulfonamide] |
| < 25 nM | CC[C@H](C)[C@@H](C(=O)N1CCOCC1)N1CC[C@H](NS(=O)(=O)CC(C)c2ccc(Cl)s2)C1=O (stereo partly drawn) [Example 57, 2-(5-chloro-2-thienyl)-N-{(3S)-1-[(1S,2S)-2-methyl-1-(4-morpholinylcarbonyl)butyl]-2-oxo-3-pyrrolidinyl}-1-propanesulfonamide] |
| < 100 nM | COC[C@@H](C(=O)N1CCOCC1)N1CC[C@H](NS(=O)(=O)CC(C)c2ccc(Cl)s2)C1=O (stereo partly drawn) [Example 58, 2-(5-chloro-2-thienyl)-N-{(3S)-1-[(1S)-1-[(methyloxy)methyl]-2-(4-morpholinyl)-2-oxoethyl]-2-oxo-3-pyrrolidinyl}-1-propanesulfonamide] |
| < 25 nM | CCOC[C@@H](C(=O)N1CCOCC1)N1CC[C@H](NS(=O)(=O)CC(C)c2ccc(Cl)s2)C1=O (stereo partly drawn) [Example 59, 2-(5-chloro-2-thienyl)-N-{(3S)-1-[(1S)-1-[(ethyloxy)methyl]-2-(4-morpholinyl)-2-oxoethyl]-2-oxo-3-pyrrolidinyl}-1-propanesulfonamide] |
| < 50 nM | Cc1noc(C[C@@H](C(=O)N2CCOCC2)N2CC[C@H](NS(=O)(=O)CC(C)c3ccc(Cl)s3)C2=O)n1 (stereo partly drawn) [Example 60, 2-(5-chloro-2-thienyl)-N-{(3S)-1-[(1S)-1-[(3-methyl-1,2,4-oxadiazol-5-yl)methyl]-2-(4-morpholinyl)-2-oxoethyl]-2-oxo-3-pyrrolidinyl}-1-propanesulfonamide] |
| < 100 nM | C[C@@H](C(=O)N1CCOCC1)N1CC[C@H](NS(=O)(=O)CC2CCc3cc(Cl)ccc32)C1=O (stereo partly drawn) [Example 61, 1-(5-chloro-2,3-dihydro-1H-inden-1-yl)-N-{(3S)-1-[(1S)-1-methyl-2-(4-morpholinyl)-2-oxoethyl]-2-oxo-3-pyrrolidinyl}methanesulfonamide] |
| < 200 nM | COC[C@@H](C(=O)N1CCOCC1)N1CC[C@H](NS(=O)(=O)CC2CCc3cc(Cl)ccc32)C1=O (stereo partly drawn) [Example 62, 1-(5-chloro-2,3-dihydro-1H-inden-1-yl)-N-{(3S)-1-[(1S)-1-[(methyloxy)methyl]-2-(4-morpholinyl)-2-oxoethyl]-2-oxo-3-pyrrolidinyl}methanesulfonamide] |
| < 50 nM | CC[C@H](C)[C@@H](C(=O)N1CCOCC1)N1CC[C@H](NS(=O)(=O)CC2CCc3cc(Cl)ccc32)C1=O (stereo partly drawn) [Example 63, 1-(5-chloro-2,3-dihydro-1H-inden-1-yl)-N-{(3S)-1-[(1S,2S)-2-methyl-1-(4-morpholinylcarbonyl)butyl]-2-oxo-3-pyrrolidinyl}methanesulfonamide] |
| < 100 nM | C[C@@H](C(=O)N1CCOCC1)N1CC[C@H](NS(=O)(=O)CC2COc3cc(Cl)ccc32)C1=O (stereo partly drawn) [Example 64, 1-(6-chloro-2,3-dihydro-1-benzofuran-3-yl)-N-{(3S)-1-[(1S)-1-methyl-2-(4-morpholinyl)-2-oxoethyl]-2-oxo-3-pyrrolidinyl}methanesulfonamide] |
| < 100 nM | COC[C@@H](C(=O)N1CCOCC1)N1CC[C@H](NS(=O)(=O)CC2COc3cc(Cl)ccc32)C1=O (stereo partly drawn) [Example 65, 1-(6-chloro-2,3-dihydro-1-benzofuran-3-yl)-N-{(3S)-1-[(1S)-1-[(methyloxy)methyl]-2-(4-morpholinyl)-2-oxoethyl]-2-oxo-3-pyrrolidinyl}methanesulfonamide] |
| < 50 nM | C[C@@H](C(=O)N1CCOCC1)N1CC[C@H](NS(=O)(=O)CC2OCc3cc(Cl)ccc32)C1=O (stereo partly drawn) [Example 66, 1-(5-chloro-1,3-dihydro-2-benzofuran-1-yl)-N-{(3S)-1-[(1S)-1-methyl-2-(4-morpholinyl)-2-oxoethyl]-2-oxo-3-pyrrolidinyl}methanesulfonamide] |
| < 200 nM | O=C(C(C1CCOCC1)N1CC[C@H](NS(=O)(=O)CCc2ccc(Cl)s2)C1=O)N1CCOCC1 (stereo partly drawn) [Example 67, 2-(5-chloro-2-thienyl)-N-{(3S)-1-[2-(4-morpholinyl)-2-oxo-1-(tetrahydro-2H-pyran-4-yl)ethyl]-2-oxo-3-pyrrolidinyl}ethanesulfonamide] |
| < 50 nM | COC[C@@H](C(=O)N1CCOCC1)N1CC[C@H](NS(=O)(=O)C[C@@H]2CCc3cc(Cl)ccc32)C1=O [Example 68, 1-[(1R)-5-chloro-2,3-dihydro-1H-inden-1-yl]-N-{(3S)-1-[(1S)-1-[(methyloxy)methyl]-2-(4-morpholinyl)-2-oxoethyl]-2-oxo-3-pyrrolidinyl}methanesulfonamide] |
| < 100 nM | O=C([C@H](c1ccccc1)N1CC[C@H](NS(=O)(=O)CCc2ccc(Cl)s2)C1=O)N1CCOCC1 [Example 69, 2-(5-chloro-2-thienyl)-N-{(3S)-1-[(1S)-2-(4-morpholinyl)-2-oxo-1-phenylethyl]-2-oxo-3-pyrrolidinyl}ethanesulfonamide] |
| < 50 nM | O=C([C@H](Cc1ccc(F)cc1)N1CC[C@H](NS(=O)(=O)CCc2ccc(Cl)s2)C1=O)N1CCOCC1 [Example 70, 2-(5-chloro-2-thienyl)-N-{(3S)-1-[(1S)-1-[(4-fluorophenyl)methyl]-2-(4-morpholinyl)-2-oxoethyl]-2-oxo-3-pyrrolidinyl}ethanesulfonamide] |
| < 50 nM | O=C([C@H](Cc1cscn1)N1CC[C@H](NS(=O)(=O)CCc2ccc(Cl)s2)C1=O)N1CCOCC1 [Example 71, 2-(5-chloro-2-thienyl)-N-{(3S)-1-[(1S)-2-(4-morpholinyl)-2-oxo-1-(1,3-thiazol-4-ylmethyl)ethyl]-2-oxo-3-pyrrolidinyl)ethanesulfonamide] |
| < 200 nM | O=C([C@H](Cc1cscn1)N1CC[C@H](NS(=O)(=O)CCc2ccc(Cl)cc2)C1=O)N1CCOCC1 [Example 72, 2-(4-chlorophenyl)-N-{(3S)-1-[(1S)-2-(4-morpholinyl)-2-oxo-1-(1,3-thiazol-4-ylmethyl)ethyl]-2-oxo-3-pyrrolidinyl}ethanesulfonamide] |
| < 50 nM | O=C([C@H](c1cccs1)N1CC[C@H](NS(=O)(=O)CCc2ccc(Cl)s2)C1=O)N1CCOCC1 [Example 73, 2-(5-chloro-2-thienyl)-N-{(3S)-1-[(1R)-2-(4-morpholinyl)-2-oxo-1-(2-thienyl)ethyl]-2-oxo-3-pyrrolidinyl}ethanesulfonamide] |
